Assay results as given in US20160046592A1, “PHARMACEUTICAL COMPOSITION FOR THE TREATMENT OF DIABETES” (Ajinomoto Co., Inc., priority 2013, published 2016).
Where a name gives a salt, the structure may show the parent alone.

The compounds below were run against T1, PPAR-α (Homo sapiens, UniProt Q07869) (assay: Measurement of PPAR-α activity (GAL4 luciferase reporter assay in CV-1 cells)). Conditions: 100(A/B): A = maximum PPAR-α activity of test compound at 3, 10, 30 and 100 μM, B = activity of the compound of WO/2011/058154 at 100 μM, 18 to 20 hours, read-out: Relative fold induction (%) of PPAR α.
T1 construct: expressed in transfected cells; host or cells: CV-1 (African green monkey kidney)
T1 sequence (Q07869 167-468): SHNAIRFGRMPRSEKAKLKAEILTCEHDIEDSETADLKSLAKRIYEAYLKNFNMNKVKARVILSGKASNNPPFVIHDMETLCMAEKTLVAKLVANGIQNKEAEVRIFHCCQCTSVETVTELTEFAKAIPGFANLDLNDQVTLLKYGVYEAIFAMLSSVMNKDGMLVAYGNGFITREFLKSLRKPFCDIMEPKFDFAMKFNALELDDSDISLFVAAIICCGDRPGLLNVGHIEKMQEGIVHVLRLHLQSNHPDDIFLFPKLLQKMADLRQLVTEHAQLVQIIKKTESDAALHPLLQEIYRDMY
Assay type: cell-based
Experimental: The PPAR-α activity was measured according to the published article (THE JOURNAL OF BIOLOGICAL CHEMISTRY Vol. 270, No 0.22: 12953-12956, 1995).
Plasmids used for the PPAR-α activity measurement were constructed as follows. A luciferase expression plasmid (UAS×5-TK-Luc) used was obtained by introducing a sequence in which five yeast GAL4-binding sequences are linked in tandem into a portion upstream of a thymidine kinase promoter of pTAL-Luc (Takara Bio Inc., 6252-1). A PPAR-α receptor expression plasmid (hGR-GAL4-hPPARα) used was obtained by introducing a human GR N-terminal region (1-76aa), a yeast GAL4 DNA-binding region (1-147aa), and a PPARα ligand-binding region (167-468aa) between Not I and Sal I sites of pExchange-1 Core Vector (Invitrogen, 211176).
A reporter assay was conducted by the following method using African green monkey kidney-derived CV-1 cells. The CV-1 cells were seeded in a 96-well plate (Thermo Fisher Scientific K.K., 4938) at 2×10^4 cells/well by using a 10% FBS-containing DMEM (NACALAI TESQUE, INC., 0845874) medium. After culturing under conditions of 37° C. and 5% CO2 for 2 hours, the cells were transfected with the plasmids. The transfection was conducted by using Lipofectamine LTX (Invitrogen, 15338-100) according to the attached manual. The plasmid solution was prepared by adding a mixture solution of the luciferase expression plasmid and the PPAR-α receptor expression plasmid to OPTI-MEM I (Invitrogen, 11058-021). After the transfection, the test compound was added, and the cells were cultured at 37° C. in the presence of 5% CO2 for 18 to 20 hours. After the culturing, the luciferase activity was measured with Luminescensor JNR (ATTO) by using Bright-Glo (Promega, E2620).
The fold induction of PPAR-α by each test compound was calculated by the following method. A relative fold induction (%) of PPAR-α by the test compound was defined as 100 (A/B), where A represents the maximum value of the PPAR-α activities of the test compound at 3 μM, 10 μM, 30 μM, and 100 μM, and B represents the PPAR-α activity of the compound of WO/2011/058154 at 100 μM.

Row | Emax | Compound
1 | 4% | CSc1cc(F)c(F)cc1-c1ccc(OCc2cccc(C(=O)N(CC(=O)O)[C@H]3CC[C@@H](N)CC3)c2)cc1 [Example 48, 2-[(4-Aminocyclohexyl)-[3-[[4-(4,5-difluoro-2-methylsulfanyl-phenyl)phenoxy]methyl]benzoyl]amino]acetic Acid Trifluoroacetate]
2 | 29% | COCCOCCN(CC(=O)O)C(=O)c1cccc(COc2ccc(-c3cc(F)c(F)cc3SC)cc2)c1 [Example 49, 2-[[3-[[4-(4,5-Difluoro-2-methylsulfanyl-phenyl)phenoxy]methyl]benzoyl]-[2-(2-methoxyethoxy)ethyl]amino]acetic Acid]
3 | 4.8% | CSc1cc(F)c(F)cc1-c1ccc(OCc2cccc(C(=O)N(CC(=O)O)CC3CCCNC3)c2)cc1 (stereo not drawn) [Example 50, 2-[[3-[[4-(4,5-Difluoro-2-methylsulfanyl-phenyl)phenoxy]methyl]benzoyl]-(3-piperidylmethyl)amino]acetic Acid Trifluoroacetate]
4 | 5.8% | CSc1cc(F)c(F)cc1-c1ccc(OCc2cccc(C(=O)N(CCS(N)(=O)=O)CC(=O)O)c2)cc1 [Example 51, 2-[[3-[[4-(4,5-Difluoro-2-methylsulfanyl-phenyl)phenoxy]methyl]benzoyl]-(2-sulfamoylethyl)amino]acetic Acid]
5 | 8.1% | CSc1cc(F)c(F)cc1-c1ccc(OCc2cccc(C(=O)N(CC(=O)O)Cc3cocn3)c2)cc1 [Example 52, 2-[[3-[[4-(4,5-Difluoro-2-methylsulfanyl-phenyl)phenoxy]methyl]benzoyl]-(oxazol-4-ylmethyl)amino]acetic Acid]
6 | 8.2% | CSc1cc(F)c(F)cc1-c1ccc(OCc2cccc(C(=O)N(CC(=O)O)Cc3ccncn3)c2)cc1 [Example 53, 2-[[3-[[4-(4,5-Difluoro-2-methylsulfanyl-phenyl)phenoxy]methyl]benzoyl]-(pyrimidin-4-ylmethyl)amino]acetic Acid]
7 | 8.7% | CSc1cc(F)c(F)cc1-c1ccc(OCc2cccc(C(=O)N(CC(=O)O)Cc3ccn[nH]3)c2)cc1 [Example 54, 2-[[3-[[4-(4,5-Difluoro-2-methylsulfanyl-phenyl)phenoxy]methyl]benzoyl]-(1H-pyrazol-5-ylmethyl)amino]acetic Acid]
8 | 11% | CSc1cc(F)c(F)cc1-c1ccc(OCc2cccc(C(=O)N(CC(=O)O)Cc3ccnn3C)c2)cc1 [Example 55, 2-[[3-[[4-(4,5-Difluoro-2-methylsulfanyl-phenyl)phenoxy]methyl]benzoyl]-[(2-methylpyrazol-3-yl)methyl]amino]acetic Acid]
9 | 8% | CNS(=O)(=O)CCN(CC(=O)O)C(=O)c1cccc(COc2ccc(-c3cc(F)c(F)cc3SC)cc2)c1 [Example 56, 2-[[3-[[4-(4,5-Difluoro-2-methylsulfanyl-phenyl)phenoxy]methyl]benzoyl]-[2-(methylsulfamoyl)ethyl]amino]acetic Acid]
10 | 10% | CSc1cc(F)c(F)cc1-c1ccc(OCc2cccc(C(=O)N(CCS(=O)(=O)N(C)C)CC(=O)O)c2)cc1 [Example 59, 2-[[3-[[4-(4,5-Difluoro-2-methylsulfanyl-phenyl)phenoxy]methyl]benzoyl]-[2-(dimethylsulfamoyl)ethyl]amino]acetic Acid]
11 | 14% | CSc1cc(F)c(F)cc1-c1ccc(OCc2cccc(C(=O)N(CCc3noc(C)n3)CC(=O)O)c2)cc1 [Example 60, 2-[[3-[[4-(4,5-Difluoro-2-methylsulfanyl-phenyl)phenoxy]methyl]benzoyl]-[2-(5-methyl-1,2,4-oxadiazol-3-yl)ethyl]amino]acetic Acid]
12 | 17% | CSc1cc(F)c(F)cc1-c1ccc(OCc2cccc(C(=O)N3C[C@H](C(N)=O)C[C@H]3C(=O)O)c2)cc1 [Example 61, (2S,4R)-4-Carbamoyl-1-[3-[[4-(4,5-difluoro-2-methylsulfanyl-phenyl)phenoxy]methyl]benzoyl]pyrrolidine-2-carboxylic Acid]
13 | 20% | CSc1cc(F)c(F)cc1-c1ccc(OCc2cccc(C(=O)N3[C@@H](CO)CC[C@H]3C(=O)O)c2)cc1 [Example 64, (2S,5R)-1-[3-[[4-(4,5-Difluoro-2-methylsulfanyl-phenyl)phenoxy]methyl]benzoyl]-5-(hydroxymethyl)pyrrolidine-2-carboxylic Acid]
14 | 22% | CSc1cc(F)c(F)cc1-c1ccc(OCc2cccc(C(=O)N(CC(=O)O)Cc3ccon3)c2)cc1 [Example 66, 2-[[3-[[4-(4,5-Difluoro-2-methylsulfanyl-phenyl)phenoxy]methyl]benzoyl]-(isoxazol-3-ylmethyl)amino]acetic Acid]
15 | 19% | CSc1cc(F)c(F)cc1-c1ccc(OCc2cccc(C(=O)N(CC(=O)O)Cc3coc(C)n3)c2)cc1 [Example 67, 2-[[3-[[4-(4,5-Difluoro-2-methylsulfanyl-phenyl)phenoxy]methyl]benzoyl]-[(2-methyloxazol-4-yl)methyl]amino]acetic Acid]
16 | 35% | CSc1cc(F)c(F)cc1-c1ccc(OCc2cccc(C(=O)N(CC(=O)O)Cc3nc(C)no3)c2)cc1 [Example 68, 2-[[3-[[4-(4,5-Difluoro-2-methylsulfanyl-phenyl)phenoxy]methyl]benzoyl]-[(3-methyl-1,2,4-oxadiazol-5-yl)methyl]amino]acetic Acid]
17 | 23% | CSc1cc(F)c(F)cc1-c1ccc(OCc2cccc(C(=O)N(CC(=O)O)Cc3noc(C)n3)c2)cc1 [Example 69, 2-[[3-[[4-(4,5-Difluoro-2-methylsulfanyl-phenyl)phenoxy]methyl]benzoyl]-[(5-methyl-1,2,4-oxadiazol-3-yl)methyl]amino]acetic Acid]
18 | 14% | CSc1cc(F)c(F)cc1-c1ccc(OCc2cccc(C(=O)N(CCn3cncn3)CC(=O)O)c2)cc1 [Example 70, 2-[[3-[[4-(4,5-Difluoro-2-methylsulfanyl-phenyl)phenoxy]methyl]benzoyl]-[2-(1,2,4-triazol-1-yl)ethyl]amino]acetic Acid]
19 | 20% | CSc1cc(F)c(F)cc1-c1ccc(OCc2cccc(C(=O)N(CC(=O)O)Cc3cscn3)c2)cc1 [Example 71, 2-[[3-[[4-(4,5-Difluoro-2-methylsulfanyl-phenyl)phenoxy]methyl]benzoyl]-(thiazol-4-ylmethyl)amino]acetic Acid]
20 | 12% | CSc1cc(F)c(F)cc1-c1ccc(OCc2cccc(C(=O)N3C(CC#N)CC[C@H]3C(=O)O)c2)cc1 (stereo partly drawn) [Example 72, (2S)-5-(Cyanomethyl)-1-[3-[[4-(4,5-difluoro-2-methylsulfanyl-phenyl)phenoxy]methyl]benzoyl]pyrrolidine-2-carboxylic Acid]
21 | 16% | CSc1cc(F)c(F)cc1-c1ccc(OCc2cccc(C(=O)N(CC(=O)O)Cc3nnc(C)o3)c2)cc1 [Example 73, 2-[[3-[[4-(4,5-Difluoro-2-methylsulfanyl-phenyl)phenoxy]methyl]benzoyl]-[(5-methyl-1,3,4-oxadiazol-2-yl)methyl]amino]acetic Acid]
22 | 16% | CSc1cc(F)c(F)cc1-c1ccc(OCc2cccc(C(=O)N(CC(=O)O)Cc3cn(C)cn3)c2)cc1 [Example 74, 2-[[3-[[4-(4,5-Difluoro-2-methylsulfanyl-phenyl)phenoxy]methyl]benzoyl]-[(1-methylimidazol-4-yl)methyl]amino]acetic Acid]
23 | 38% | N#CCCN(CC(=O)O)C(=O)c1cccc(COc2ccc(-c3cc(F)c(F)c4ccoc34)cc2)c1 [Example 75, 2-[2-Cyanoethyl-[3-[[4-(4,5-difluorobenzofuran-7-yl)phenoxy]methyl]benzoyl]amino]acetic Acid]
24 | 40% | CS(=O)(=O)CCCN(CC(=O)O)C(=O)c1cccc(COc2ccc(-c3cc(F)c(F)c4ccoc34)cc2)c1 [Example 77, 2-[[3-[[4-(4,5-Difluorobenzofuran-7-yl)phenoxy]methyl]benzoyl]-(3-methylsulfonylpropyl)amino]acetic Acid]
